Laboratory results from patent US20230056935A1, “Compound, Antimicrobial Deodorant Composition Comprising Same, and Method for Producing Same” (LG Chem, Ltd., priority 2020, published 2023).

How the values were obtained:
E. coli (ATCC 25922) = assay: Antibacterial property evaluation, bacterial growth inhibition (absorbance at 600 nm); format: cell-based; details: Escherichia coli, 16 hours at 35° C.; for Absorbance: 600 nm
Procedure: (§1) After introducing 1 mg to 200 mg of the compound to a nutrient broth culture medium (25 ml) inoculated with bacteria 3000±300 CFU/ml, the result is incubated for 16 hours at 35° C. in a shaking incubator to prepare a test culture medium. A control culture medium is prepared in the same manner except that the compound is not introduced in the test culture medium. For the test culture medium and the control culture medium, absorbance at a wavelength of 600 nm is measured using a UV-Vis spectrophotometer, and using the measured absorbance value, a bacterial growth inhibition rate (%) is calculated according to the following Mathematical Formula 1.
(§2) To a nutrient broth culture medium (25 ml) inoculated with Proteus mirabilis (ATCC 29906) or E. coli (ATCC 25922) 3000±300 CFU/ml, Compound 1 prepared in Preparation Example 1 was introduced in a content as described in the following Table 1, and the result was incubated for 16 hours at 35° C. in a shaking incubator to prepare a test culture medium. As a control, a control culture medium was prepared in the same manner except that the compound was not introduced in the test culture medium. For the test culture medium and the control culture medium, absorbance at a wavelength of 600 nm was measured using a UV-Vis spectrophotometer. Using the measurement results, a bacterial growth inhibition rate (%) was calculated according to the following Mathematical Formula 1.
(§3) (As: absorbance of test culture medium, A0: absorbance of control culture medium)

[1] = tested on: Proteus mirabilis (ATCC 29906); assay: as above; format: cell-based; details: 16 hours at 35° C.; for Absorbance: 600 nm
Procedure: as §1, §2, §3

[2] = Deodorizing property evaluation (SPME, GC/MS peak area); details: total 80 mg
Procedure: To a test solution including the compound in 1 phr to 20 phr with respect to a total weight of 80 mg of a super absorbent polymer and the compound, 20 mL of a malodorous solution is introduced, isovaleraldehyde is adsorbed using a solid-phase microextraction method, and a GC/MS peak area of the adsorbed isovaleraldehyde is analyzed through a GC/MS analysis. For a control solution prepared in the same manner except that the compound is not introduced in the test solution, a GC/MS peak area of isovaleraldehyde is analyzed in the same manner, and, using the GC/MS peak area values of the test solution and the control solution, a deodorization rate is calculated according to the following Mathematical Formula 2.
Compound 1 prepared in Preparation Example 1 was introduced to a vial in a content as described in the following Table 2, and after introducing a super absorbent polymer (LG Chem., GS-301N) thereto so that a total content of the super absorbent polymer and Compound 1 becomes 80 mg, a malodorous solution (20 mL) was introduced thereto to prepare a test solution. As the malodorous solution, a solution in which diacetyl (242 ug/mL), isovaleraldehyde (49 ug/mL), dimethyl disulfide (30 ug/mL), dimethyl trisulfide (26 ug/mL) and p-cresol (2508 ug/mL) are mixed was 1/1000 diluted using an aqueous sodium chloride solution (0.9% by weight) and used. Volatile substances generated in the test solution was adsorbed using a solid-phase microextraction method (SPME), and through a GC/MS analysis, GC/MS peak areas of the adsorbed malodorous substances (diacetyl, isovaleraldehyde, dimethyl disulfide, dimethyl trisulfide and p-cresol) were each analyzed. For a control solution prepared in the same manner except that Compound 1 was not included, peak areas of the malodorous substances were analyzed in the same manner, and deodorization rates thereof were each calculated according to the following Mathematical Formula 2.
(Cs: GC/MS peak areas of malodorous substances test solution, C0: GC/MS peak areas of malodorous substances of control solution)

[3] = content 20 mg in 25 ml nutrient broth
[4] = content 50 mg in 25 ml nutrient broth
[5] = content 100 mg in 25 ml nutrient broth
[6] = 1 phr of Compound 1 with super absorbent polymer
[7] = 2 phr of Compound 1 with super absorbent polymer
[8] = 5 phr of Compound 1 with super absorbent polymer
[9] = 8 phr of Compound 1 with super absorbent polymer
[10] = 10 phr of Compound 1 with super absorbent polymer

C=CC(=O)OCCC1CCCCN1C(=O)OC(C)CC (stereo not shown) [Compound 1]
Bacterial Growth Inhibition Rate (%) (E. coli (ATCC 25922); [3]): 62.9%
Absorbance (E. coli (ATCC 25922); [3]): 0.063
Bacterial Growth Inhibition Rate (%) (E. coli (ATCC 25922); [4]): 92.4%
Absorbance (E. coli (ATCC 25922); [4]): 0.013
Bacterial Growth Inhibition Rate (%) (E. coli (ATCC 25922); [5]): 88.8%
Absorbance (E. coli (ATCC 25922); [5]): 0.019
Bacterial Growth Inhibition Rate (%) [1, 3]: 55.6%
Absorbance [1, 3]: 0.059
Bacterial Growth Inhibition Rate (%) [1, 4]: 91.7%
Absorbance [1, 4]: 0.011
Bacterial Growth Inhibition Rate (%) [1, 5]: 89.5%
Absorbance [1, 5]: 0.014
Deodorization rate (%) for Diacetyl [2, 6]: 79%
Deodorization rate (%) for Dimethyl Disulfide [2, 6]: 65%
Deodorization rate (%) for Dimethyl Trisulfide [2, 6]: 16%
Deodorization rate (%) for Isovaleraldehyde [2, 6]: 87%
Deodorization rate (%) for p-Cresol [2, 6]: 2%
Deodorization rate (%) for Diacetyl [2, 7]: 86%
Deodorization rate (%) for Dimethyl Disulfide [2, 7]: 76%
Deodorization rate (%) for Dimethyl Trisulfide [2, 7]: 27%
Deodorization rate (%) for Isovaleraldehyde [2, 7]: 92%
Deodorization rate (%) for p-Cresol [2, 7]: 20%
Deodorization rate (%) for Diacetyl [2, 8]: 91%
Deodorization rate (%) for Dimethyl Disulfide [2, 8]: 84%
Deodorization rate (%) for Dimethyl Trisulfide [2, 8]: 61%
Deodorization rate (%) for Isovaleraldehyde [2, 8]: 94%
Deodorization rate (%) for p-Cresol [2, 8]: 37%
Deodorization rate (%) for Diacetyl [2, 9]: 92%
Deodorization rate (%) for Dimethyl Disulfide [2, 9]: 88%
Deodorization rate (%) for Dimethyl Trisulfide [2, 9]: 72%
Deodorization rate (%) for Isovaleraldehyde [2, 9]: 95%
Deodorization rate (%) for p-Cresol [2, 9]: 46%
Deodorization rate (%) for Diacetyl [2, 10]: 93%
Deodorization rate (%) for Dimethyl Disulfide [2, 10]: 88%
Deodorization rate (%) for Dimethyl Trisulfide [2, 10]: 76%
Deodorization rate (%) for Isovaleraldehyde [2, 10]: 95%
Deodorization rate (%) for p-Cresol [2, 10]: 61%
